Experimental data as given in patent publication US6355799B1, “Substituted benzene compounds, process for their preparation, and herbicidal and defoliant compositions containing them” (ISK Americas Incorporated, priority 1997, dated 2002).

Experiments:
Type in all cases: in vivo
[1] = test system: barnyardgrass (Echinochloa crus-galli, ECHCG); assay: Pre-emerge test, greenhouse herbicide activity screening; details: pre-emerge; for Pre-emerge Herbicidal Activity ECHCG (phytotoxicity rating, scale 0-100): rated 14 days after application, 0 = no damage, 100 = complete death; for phytotoxicity rating ECHCG: 14 days after application, rating scale 0-100
Procedure, shortened: (§1)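 Visual ratings on a 0-100 scale (0 no damage, 100 all plants dead) were taken at 14 days after treatment. Rates of 15-1000 g ai/ha in acetone, 187 l/ha, were sprayed onto soil one day after planting (pre-emerge) or onto 2-3 leaf plants with 0.25% v/v surfactant (post-emerge).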

[2] = test system: green foxtail (Setaria viridis, SETVI); assay: as above; details: pre-emerge; for Pre-emerge Herbicidal Activity SETVI (phytotoxicity rating, scale 0-100): rated 14 days after application, 0 = no damage, 100 = complete death; for phytotoxicity rating SETVI: 14 days after application, rating scale 0-100
Procedure, shortened: as §1

[3] = test system: ivyleaf morningglory (Ipomoea hederacea, IPOHE); assay: as above; details: pre-emerge; for Pre-emerge Herbicidal Activity IPOHE (phytotoxicity rating, scale 0-100): rated 14 days after application, 0 = no damage, 100 = complete death; for phytotoxicity rating IPOHE: 14 days after application, rating scale 0-100
Procedure, shortened: as §1

[4] = test system: johnsongrass (Sorghum halepense, SORHA); assay: as above; details: pre-emerge; for Pre-emerge Herbicidal Activity SORHA (phytotoxicity rating, scale 0-100): rated 14 days after application, 0 = no damage, 100 = complete death; for phytotoxicity rating SORHA: 14 days after application, rating scale 0-100
Procedure, shortened: as §1

[5] = test system: lambsquarters (Chenopodium album, CHEAL); assay: as above; details: pre-emerge; for Pre-emerge Herbicidal Activity CHEAL (phytotoxicity rating, scale 0-100): rated 14 days after application, 0 = no damage, 100 = complete death; for phytotoxicity rating CHEAL: 14 days after application, rating scale 0-100
Procedure, shortened: as §1

[6] = test system: large crabgrass (Digitaria sanguinalis, DIGSA); assay: as above; details: pre-emerge; for Pre-emerge Herbicidal Activity DIGSA (phytotoxicity rating, scale 0-100): rated 14 days after application, 0 = no damage, 100 = complete death; for phytotoxicity rating DIGSA: 14 days after application, rating scale 0-100
Procedure, shortened: as §1

[7] = test system: sicklepod (Cassia obtusifolia, CASOB); assay: as above; details: pre-emerge; for Pre-emerge Herbicidal Activity CASOB (phytotoxicity rating, scale 0-100): rated 14 days after application, 0 = no damage, 100 = complete death; for phytotoxicity rating CASOB: 14 days after application, rating scale 0-100
Procedure, shortened: as §1

[8] = test system: velvetleaf (Abutilon theophrasti, ABUTH); assay: as above; details: pre-emerge; for Pre-emerge Herbicidal Activity ABUTH (phytotoxicity rating, scale 0-100): rated 14 days after application, 0 = no damage, 100 = complete death; for phytotoxicity rating ABUTH: 14 days after application, rating scale 0-100
Procedure, shortened: as §1

[9] = test system: johnsongrass (Sorghum halepense, SORHA); assay: Post-emerge test, greenhouse herbicide activity screening; details: Sorghum halepense, post-emergence, 336 h, phytotoxicity rating 0-100 (0 no damage, 100 complete death), 14 days after application, read-out: Post-emerge Herbicidal Activity SORHA
Procedure, shortened: (§2)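 Compounds in acetone were track-sprayed at 187 l/ha, 15–1000 g ai/ha, onto sandy loam pots. Pre-emerge seeds were sown one day before spraying, with surface watering afterwards. Post-emerge plants were at the 2–3 leaf stage and sprayed with 0.25% v/v non-ionic surfactant. Injury was rated 0–100 at 14 days.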

[10] = test system: lambsquarters (Chenopodium album, CHEAL); assay: as above; details: Chenopodium album, post-emergence, 336 h, phytotoxicity rating 0-100 (0 no damage, 100 complete death), 14 days after application, read-out: Post-emerge Herbicidal Activity CHEAL
Procedure, shortened: as §2

[11] = test system: large crabgrass (Digitaria sanguinalis, DIGSA); assay: as above; details: Digitaria sanguinalis, post-emergence, 336 h, phytotoxicity rating 0-100 (0 no damage, 100 complete death), 14 days after application, read-out: Post-emerge Herbicidal Activity DIGSA
Procedure, shortened: as §2

[12] = test system: redroot pigweed (Amaranthus retroflexus, AMARE); assay: as above; details: Amaranthus retroflexus, post-emergence, 336 h, phytotoxicity rating 0-100 (0 no damage, 100 complete death), 14 days after application, read-out: Post-emerge Herbicidal Activity AMARE
Procedure, shortened: as §2

[13] = test system: sicklepod (Cassia obtusifolia, CASOB); assay: as above; details: Senna obtusifolia, post-emergence, 336 h, phytotoxicity rating 0-100 (0 no damage, 100 complete death), 14 days after application, read-out: Post-emerge Herbicidal Activity CASOB
Procedure, shortened: as §2

[14] = test system: velvetleaf (Abutilon theophrasti, ABUTH); assay: as above; details: Abutilon theophrasti, post-emergence, 336 h, phytotoxicity rating 0-100 (0 no damage, 100 complete death), 14 days after application, read-out: Post-emerge Herbicidal Activity ABUTH
Procedure, shortened: as §2

In the case of COc1c(Cl)cc(F)c(-n2c(=O)cc(C(F)(F)F)n(C)c2=O)c1N [Compound 1-4, 3-(2-amino-4-chloro-6-fluoro-3-methoxyphenyl)-1-methyl-6-trifluoromethyl-2,4(1H, 3H)-pyrimidinedione], the “Pre-emerge Herbicidal Activity ECHCG (phytotoxicity rating, scale 0-100)” value ([1]; 63 g ai/ha) is reported as 100, the “Pre-emerge Herbicidal Activity ECHCG (phytotoxicity rating, scale 0-100)” value ([1]; 250 g ai/ha) is reported as 100 and the “phytotoxicity rating ECHCG” value ([1]; 3.9 g ai/ha) is reported as 0. The “phytotoxicity rating ECHCG” value ([1]; 7.8 g ai/ha) was 0, the “phytotoxicity rating ECHCG” value ([1]; 15.6 g ai/ha) was 0 and the “phytotoxicity rating ECHCG” value ([1]; 31.3 g ai/ha) was 10. The “phytotoxicity rating ECHCG” value ([1]; 62.5 g ai/ha) was 30, the “phytotoxicity rating ECHCG” value ([1]; 125 g ai/ha) was 95 and the “phytotoxicity rating ECHCG” value ([1]; 250 g ai/ha) was 100. For the same molecule, the “Pre-emerge Herbicidal Activity SETVI (phytotoxicity rating, scale 0-100)” value ([2]; 63 g ai/ha) was 100, the “Pre-emerge Herbicidal Activity SETVI (phytotoxicity rating, scale 0-100)” value ([2]; 250 g ai/ha) was 100 and the “phytotoxicity rating SETVI” value ([2]; 3.9 g ai/ha) was 0. For the same molecule, the “phytotoxicity rating SETVI” value ([2]; 7.8 g ai/ha) was 60, the “phytotoxicity rating SETVI” value ([2]; 15.6 g ai/ha) was 80 and the “phytotoxicity rating SETVI” value ([2]; 31.3 g ai/ha) was 80. The “phytotoxicity rating SETVI” value ([2]; 62.5 g ai/ha) was 100, the “phytotoxicity rating SETVI” value ([2]; 125 g ai/ha) was 100 and the “phytotoxicity rating SETVI” value ([2]; 250 g ai/ha) was 100. The “Pre-emerge Herbicidal Activity IPOHE (phytotoxicity rating, scale 0-100)” value ([3]; 63 g ai/ha) was 100, the “Pre-emerge Herbicidal Activity IPOHE (phytotoxicity rating, scale 0-100)” value ([3]; 250 g ai/ha) was 100 and the “phytotoxicity rating IPOHE” value ([3]; 3.9 g ai/ha) was 0. The “phytotoxicity rating IPOHE” value ([3]; 7.8 g ai/ha) was 0, the “phytotoxicity rating IPOHE” value ([3]; 15.6 g ai/ha) was 0 and the “phytotoxicity rating IPOHE” value ([3]; 31.3 g ai/ha) was 50. The “phytotoxicity rating IPOHE” value ([3]; 62.5 g ai/ha) was 90, the “phytotoxicity rating IPOHE” value ([3]; 125 g ai/ha) was 100 and the “phytotoxicity rating IPOHE” value ([3]; 250 g ai/ha) was 100. The “Pre-emerge Herbicidal Activity SORHA (phytotoxicity rating, scale 0-100)” value ([4]; 63 g ai/ha) was 85, the “Pre-emerge Herbicidal Activity SORHA (phytotoxicity rating, scale 0-100)” value ([4]; 250 g ai/ha) was 100 and the “phytotoxicity rating SORHA” value ([4]; 3.9 g ai/ha) was 0. For the same molecule, the “phytotoxicity rating SORHA” value ([4]; 7.8 g ai/ha) was 0, the “phytotoxicity rating SORHA” value ([4]; 15.6 g ai/ha) was 0 and the “phytotoxicity rating SORHA” value ([4]; 31.3 g ai/ha) was 30. The “phytotoxicity rating SORHA” value ([4]; 62.5 g ai/ha) was 40, the “phytotoxicity rating SORHA” value ([4]; 125 g ai/ha) was 95 and the “phytotoxicity rating SORHA” value ([4]; 250 g ai/ha) was 100. For the same molecule, the “Pre-emerge Herbicidal Activity CHEAL (phytotoxicity rating, scale 0-100)” value ([5]; 63 g ai/ha) was 100, the “Pre-emerge Herbicidal Activity CHEAL (phytotoxicity rating, scale 0-100)” value ([5]; 250 g ai/ha) was 100 and the “phytotoxicity rating CHEAL” value ([5]; 3.9 g ai/ha) was 30. For the same molecule, the “phytotoxicity rating CHEAL” value ([5]; 7.8 g ai/ha) was 60, the “phytotoxicity rating CHEAL” value ([5]; 15.6 g ai/ha) was 100 and the “phytotoxicity rating CHEAL” value ([5]; 31.3 g ai/ha) was 100. For the same molecule, the “phytotoxicity rating CHEAL” value ([5]; 62.5 g ai/ha) was 100, the “phytotoxicity rating CHEAL” value ([5]; 125 g ai/ha) was 100 and the “phytotoxicity rating CHEAL” value ([5]; 250 g ai/ha) was 100. The “Pre-emerge Herbicidal Activity DIGSA (phytotoxicity rating, scale 0-100)” value ([6]; 63 g ai/ha) was 100, the “Pre-emerge Herbicidal Activity DIGSA (phytotoxicity rating, scale 0-100)” value ([6]; 250 g ai/ha) was 100 and the “phytotoxicity rating DIGSA” value ([6]; 3.9 g ai/ha) was 0. For the same molecule, the “phytotoxicity rating DIGSA” value ([6]; 7.8 g ai/ha) was 30, the “phytotoxicity rating DIGSA” value ([6]; 15.6 g ai/ha) was 30 and the “phytotoxicity rating DIGSA” value ([6]; 31.3 g ai/ha) was 30. For the same molecule, the “phytotoxicity rating DIGSA” value ([6]; 62.5 g ai/ha) was 95, the “phytotoxicity rating DIGSA” value ([6]; 125 g ai/ha) was 100 and the “phytotoxicity rating DIGSA” value ([6]; 250 g ai/ha) was 100. For the same molecule, the “Pre-emerge Herbicidal Activity CASOB (phytotoxicity rating, scale 0-100)” value ([7]; 63 g ai/ha) was 90, the “Pre-emerge Herbicidal Activity CASOB (phytotoxicity rating, scale 0-100)” value ([7]; 250 g ai/ha) was 100 and the “phytotoxicity rating CASOB” value ([7]; 3.9 g ai/ha) was 0. For the same molecule, the “phytotoxicity rating CASOB” value ([7]; 7.8 g ai/ha) was 30, the “phytotoxicity rating CASOB” value ([7]; 15.6 g ai/ha) was 100 and the “phytotoxicity rating CASOB” value ([7]; 31.3 g ai/ha) was 0. The “phytotoxicity rating CASOB” value ([7]; 62.5 g ai/ha) was 80, the “phytotoxicity rating CASOB” value ([7]; 125 g ai/ha) was 95 and the “phytotoxicity rating CASOB” value ([7]; 250 g ai/ha) was 100. The “Pre-emerge Herbicidal Activity ABUTH (phytotoxicity rating, scale 0-100)” value ([8]; 63 g ai/ha) was 100, the “Pre-emerge Herbicidal Activity ABUTH (phytotoxicity rating, scale 0-100)” value ([8]; 250 g ai/ha) was 100 and the “phytotoxicity rating ABUTH” value ([8]; 3.9 g ai/ha) was 95. The “phytotoxicity rating ABUTH” value ([8]; 7.8 g ai/ha) was 100, the “phytotoxicity rating ABUTH” value ([8]; 15.6 g ai/ha) was 100 and the “phytotoxicity rating ABUTH” value ([8]; 31.3 g ai/ha) was 100. The “phytotoxicity rating ABUTH” value ([8]; 62.5 g ai/ha) was 100, the “phytotoxicity rating ABUTH” value ([8]; 125 g ai/ha) was 100 and the “phytotoxicity rating ABUTH” value ([8]; 250 g ai/ha) was 100. It also gave a pest or weed control at 63 g/ha ([9]; 63 g ai/ha) of 0%, a pest or weed control at 250 g/ha ([9]; 250 g ai/ha) of 70% and a pest or weed control at 63 g/ha ([10]; 63 g ai/ha) of 60%. It also gave a pest or weed control at 250 g/ha ([10]; 250 g ai/ha) of 95%, a pest or weed control at 63 g/ha ([11]; 63 g ai/ha) of 0% and a pest or weed control at 250 g/ha ([11]; 250 g ai/ha) of 50%. For the same molecule, the pest or weed control at 63 g/ha ([12]; 63 g ai/ha) was 30%, the pest or weed control at 250 g/ha ([12]; 250 g ai/ha) was 95% and the pest or weed control at 63 g/ha ([13]; 63 g ai/ha) was 60%. It also gave a pest or weed control at 250 g/ha ([13]; 250 g ai/ha) of 100%, a pest or weed control at 63 g/ha ([14]; 63 g ai/ha) of 100% and a pest or weed control at 250 g/ha ([14]; 250 g ai/ha) of 100%.
